Source: patent US20110243846A1, “BENZOTHIAZOLE AMIDES FOR DETECTION OF AMYLOID BETA” (priority 2008, published 2011)

Tested on: Aβ plaques in cortex sections of Alzheimer's disease patients
Experiment: Autoradiographical analysis of binding to human brain sections
Conditions: F-18 labelled compound; for Autoradiographical analysis of binding to cryosections from cortex: cryosections from cortex of AD patients vs controls without Aβ plaques (HC/FTD)
Description: Fresh frozen as well as paraffin embedded sections of the frontal lobe from Alzheimer's dementia patients, frontotemporal dementia patients and age matched controls were used for the study. Frozen sections, sliced at 18 μm thickness on a cryostate (Leica, Germany) and paraffin sections, sliced on a sliding microtom (Leica) at a thickness of 6 μm, were mounted onto glass slides (Superfrost Plus, Fa.Menzel, Braunschweig Germany). Frozen sections were allowed to adhere to the slides for several nights at −20° C. The paraffin sections were deparaffinized using routine histological methods. For binding studies sections were incubated with the F-18 labeled test compound at 10 Bq/μl diluted in 25 mM Hepes buffer, pH 7.4, 0.1% (BSA) (200-300 μl/slide) for 1.5 hour at room temperature in a humidified chamber. For blocking experiments a 1000-fold access of the unlabeled test substance was added to the incubation mixture. After hybridization, sections were washed four times with Hepes buffer, 0.1% BSA (or alternatively two times with 40% ethanol) and finally dipped two times into dest. water for 10 sec. The air-dried sections were exposed to imaging plates and signals were detected by a phosphoimager device (Fuji BAS5000).

| SMILES | Autoradiographical analysis of binding to cryosections from cortex | Autoradiographical analysis of binding to paraffine-sections from cortex (paraffine-sections from cortex of AD patients vs controls without Aβ plaques (HC/FTD)) |
| --- | --- | --- |
| COc1ccc2nc(NC(=O)c3ccc([18F])cc3)sc2c1 [compound 1f, 4-(^18F)fluoro-N-(6-methoxy-1,3-benzothiazol-2-yl)benzamide] | Specific binding in plaque-rich regions of AD samples | – |
| COc1ccc2nc(NC(=O)c3cc([18F])ccn3)sc2c1 [compound 2c, 4-(^18F)fluoro-N-(6-methoxy-1,3-benzothiazol-2-yl)pyridine-2-carboxamide] | Specific binding in plaque-rich regions of AD samples | – |
| COc1ccc2nc(NC(=O)c3cccc([18F])n3)sc2c1 [compound 3c, 6-[^18F]-fluoro-N-(6-methoxy-1,3-benzothiazol-2-yl)pyridine-2-carboxamide] | – | Specific binding in plaque-rich regions of AD samples |
